# Source: US10519504B2, “Methods for treatment of oncological disorders using epimetabolic shifters, multidimensional intracellular molecules, or environmental influencers” (Berg LLC, priority 2009, dated 2019)
# System: Isocitrate Dehydrogenase-1 (IDH-1)
# Test: Western blot, IDH1 levels
# Format: cell-based, human
# Description: The whole cell pellets were resuspended one at a time in 1 mL of C7 buffer and transferred to labeled 15 mL tubes. The samples were then sonicated in the cold room on ice using 6 sonic pulses with the setting at #14. The samples were spun for a short time to 2500 g after sonication and the samples transferred to 2 ml tubes. The pH was verified of each sample (pH should be 9.0) using the foam remaining in the […] sample tubes.
# Alkylation and reduction of samples was performed for each sample by adding 10 ul of 1M acrylamide, 25 ul of tributylphoshene and incubation for 90 mins with intermittent mixing. After incubation, 10 ul of 1M DTT was added and the tubes were spun at 20,000 g at 20 deg C. for 10 minutes and transferred the supernatant to labeled Amicon Ultra centrifugal filter units with a 10 k cut off (Millipore catalog #UFC 801024). The samples were spun for 15 minutes at 2500 g in 2 intervals. The conductivity was measured for Chaps alone as well as the samples using a conductivity meter. If the conductivity of samples is high, then 1 ml of chaps was added for buffer exchange and spun again at 2500 g until the volume was down to 250 ul. […]
# The samples were processed as per standard protocols as described above and the amount of protein in each of the samples was determined by Bradford assay. […]
smiles,measurement,setting,value
"COC1=C(OC)C(=O)C(C/C=C(\C)CC/C=C(\C)CC/C=C(\C)CC/C=C(\C)CC/C=C(\C)CC/C=C(\C)CC/C=C(\C)CC/C=C(\C)CC/C=C(\C)CCC=C(C)C)=C(C)C1=O [Q10, Coenzyme Q10]",expression of IDH1,"HDFa, nFIB, HASMC",did not demonstrate significant changes in the expression pattern
same,expression of IDH1,"cancer cell lines MCF-7, SKMEL28, HepG2, PaCa-2",increased expression of IDH1
